For test [1], the target named is T1, FAAH Rat brain (Rattus norvegicus, UniProt P97612).
T1 construct: from tissue; host or cells: rat brain membranes
T1 sequence (P97612 1-579): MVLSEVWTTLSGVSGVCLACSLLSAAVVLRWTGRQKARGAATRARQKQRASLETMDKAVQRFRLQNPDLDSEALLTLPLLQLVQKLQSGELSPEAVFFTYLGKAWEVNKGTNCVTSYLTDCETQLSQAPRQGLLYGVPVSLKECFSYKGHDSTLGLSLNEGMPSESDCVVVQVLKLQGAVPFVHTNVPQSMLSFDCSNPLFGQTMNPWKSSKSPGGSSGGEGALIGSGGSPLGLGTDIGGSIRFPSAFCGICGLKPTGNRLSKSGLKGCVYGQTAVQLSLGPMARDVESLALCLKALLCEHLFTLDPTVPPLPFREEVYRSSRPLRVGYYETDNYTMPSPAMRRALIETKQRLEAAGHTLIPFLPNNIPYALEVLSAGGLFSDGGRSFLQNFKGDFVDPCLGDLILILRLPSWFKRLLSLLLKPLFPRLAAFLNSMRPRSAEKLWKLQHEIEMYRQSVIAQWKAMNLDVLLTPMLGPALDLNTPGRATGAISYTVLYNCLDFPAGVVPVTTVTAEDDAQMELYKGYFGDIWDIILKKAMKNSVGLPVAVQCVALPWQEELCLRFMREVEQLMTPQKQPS
The test is described as follows: FAAH inhibitory activity, rat brain membranes, [14C]-AEA hydrolysis. Type of test: biochemical. The conditions noted are these: rat brain, read-out: FAAH Rat brain IC50. As for the experimental part: The compounds of Examples 12, and 19 are tested for FAAH inhibitory activity as follows:
Method 1: Membranes obtained from rat brain are incubated with 2 mM [^14C]-AEA, 30 min at 37° C. at pH values ranging from 9.00 to 10.00 in presence and absence of tested compounds in a final volume of […]. Incubation is stopped by extraction with CHCl3/MeOH (1:1) and the aqueous phases containing [^14C]-Ethanolamine produced by [^14C]-AEA hydrolysis are measured.

The target of test [2] is FP receptor (Homo sapiens, UniProt P43088). Put plainly: Prostanoid receptor antagonism (FLIPR), FP. Type of test: cell-based.
The target in test [3] is T2, DP receptor (Homo sapiens, UniProt Q13258).
T2 sequence (Q13258 1-359): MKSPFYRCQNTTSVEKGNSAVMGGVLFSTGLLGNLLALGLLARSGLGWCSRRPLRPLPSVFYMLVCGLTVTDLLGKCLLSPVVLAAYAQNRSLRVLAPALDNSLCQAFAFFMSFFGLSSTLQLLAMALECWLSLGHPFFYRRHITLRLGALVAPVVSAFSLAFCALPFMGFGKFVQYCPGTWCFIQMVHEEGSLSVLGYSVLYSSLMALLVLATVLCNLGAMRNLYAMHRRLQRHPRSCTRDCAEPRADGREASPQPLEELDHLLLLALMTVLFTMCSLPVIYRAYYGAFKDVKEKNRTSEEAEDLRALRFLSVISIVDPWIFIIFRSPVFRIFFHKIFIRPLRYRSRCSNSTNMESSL
The test is described as follows: Prostanoid receptor antagonism (FLIPR), DP. Type of test: cell-based.

The target in test [4] is T3, EP1 receptor (Homo sapiens, UniProt P34995).
T3 sequence (P34995 1-402): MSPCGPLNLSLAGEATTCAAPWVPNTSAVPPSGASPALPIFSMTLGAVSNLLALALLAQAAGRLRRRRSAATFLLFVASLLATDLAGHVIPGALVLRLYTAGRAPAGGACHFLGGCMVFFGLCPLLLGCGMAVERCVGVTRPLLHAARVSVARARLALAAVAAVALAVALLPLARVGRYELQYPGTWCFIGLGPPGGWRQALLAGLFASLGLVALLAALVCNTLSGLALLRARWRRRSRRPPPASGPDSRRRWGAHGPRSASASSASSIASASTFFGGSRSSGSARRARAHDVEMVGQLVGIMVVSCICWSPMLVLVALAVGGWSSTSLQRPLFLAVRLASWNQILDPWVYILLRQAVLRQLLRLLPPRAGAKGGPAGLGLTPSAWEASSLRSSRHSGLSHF
The test is described as follows: Prostanoid receptor antagonism (FLIPR), EP1. Type of test: cell-based.

Test [5] deals with EP2 receptor (Homo sapiens, UniProt P43116). Put plainly: Prostanoid receptor antagonism (FLIPR), EP2. Format: cell-based.
In test [6] the target is T4, EP3 receptor (Homo sapiens, UniProt P43115).
T4 sequence (P43115 1-390): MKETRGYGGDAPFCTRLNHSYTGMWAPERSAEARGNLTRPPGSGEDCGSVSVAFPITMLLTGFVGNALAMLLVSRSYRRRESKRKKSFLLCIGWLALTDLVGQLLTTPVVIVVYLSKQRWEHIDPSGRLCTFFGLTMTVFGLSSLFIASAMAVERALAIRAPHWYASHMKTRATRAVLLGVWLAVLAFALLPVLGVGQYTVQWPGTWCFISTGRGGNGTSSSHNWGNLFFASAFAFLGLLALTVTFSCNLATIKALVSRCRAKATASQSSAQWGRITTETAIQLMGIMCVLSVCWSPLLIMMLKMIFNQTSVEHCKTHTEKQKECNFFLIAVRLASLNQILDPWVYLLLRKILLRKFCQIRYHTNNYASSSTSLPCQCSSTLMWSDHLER
The test is described as follows: Prostanoid receptor antagonism (FLIPR), EP3. Format: cell-based.

Test [7] deals with EP4 receptor (Homo sapiens, UniProt P35408). Put plainly: Prostanoid receptor antagonism (FLIPR), EP4. Format: cell-based.
In test [8] the target is IP receptor (Homo sapiens, UniProt P43119). The test is described as follows: Prostanoid receptor antagonism (FLIPR), IP. Format: cell-based.
Test [9] deals with T5, TP receptor (Homo sapiens, UniProt P21731).
T5 sequence (P21731 1-343): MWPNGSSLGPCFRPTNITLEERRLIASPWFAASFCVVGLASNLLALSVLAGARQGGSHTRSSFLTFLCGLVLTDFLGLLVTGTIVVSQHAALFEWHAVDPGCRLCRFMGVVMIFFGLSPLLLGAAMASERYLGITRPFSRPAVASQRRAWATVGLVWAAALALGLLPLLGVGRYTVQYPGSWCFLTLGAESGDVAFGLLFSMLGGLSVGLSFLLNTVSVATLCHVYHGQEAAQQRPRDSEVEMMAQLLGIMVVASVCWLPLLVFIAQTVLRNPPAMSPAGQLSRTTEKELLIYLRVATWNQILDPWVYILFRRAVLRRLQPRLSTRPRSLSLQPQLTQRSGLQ
The test is described as follows: Prostanoid receptor antagonism (FLIPR), TP. Type of test: cell-based.

Read-outs that look alike come from different tables or passages of the source.

EP4 receptor, sequence (P35408 whole entry): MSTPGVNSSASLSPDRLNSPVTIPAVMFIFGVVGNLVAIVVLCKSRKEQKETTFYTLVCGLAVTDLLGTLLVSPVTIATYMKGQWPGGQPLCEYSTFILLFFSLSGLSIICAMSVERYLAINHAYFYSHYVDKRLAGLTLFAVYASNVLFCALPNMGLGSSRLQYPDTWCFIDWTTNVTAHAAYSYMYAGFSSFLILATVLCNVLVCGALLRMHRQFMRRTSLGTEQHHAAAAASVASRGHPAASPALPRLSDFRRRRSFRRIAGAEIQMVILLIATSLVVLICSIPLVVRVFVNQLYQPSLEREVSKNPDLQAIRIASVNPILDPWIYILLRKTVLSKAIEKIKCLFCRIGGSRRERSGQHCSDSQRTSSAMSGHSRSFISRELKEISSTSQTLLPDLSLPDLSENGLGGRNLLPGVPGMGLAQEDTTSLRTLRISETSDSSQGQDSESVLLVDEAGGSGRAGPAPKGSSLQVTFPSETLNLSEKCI
EP2 receptor, sequence (P43116 whole entry): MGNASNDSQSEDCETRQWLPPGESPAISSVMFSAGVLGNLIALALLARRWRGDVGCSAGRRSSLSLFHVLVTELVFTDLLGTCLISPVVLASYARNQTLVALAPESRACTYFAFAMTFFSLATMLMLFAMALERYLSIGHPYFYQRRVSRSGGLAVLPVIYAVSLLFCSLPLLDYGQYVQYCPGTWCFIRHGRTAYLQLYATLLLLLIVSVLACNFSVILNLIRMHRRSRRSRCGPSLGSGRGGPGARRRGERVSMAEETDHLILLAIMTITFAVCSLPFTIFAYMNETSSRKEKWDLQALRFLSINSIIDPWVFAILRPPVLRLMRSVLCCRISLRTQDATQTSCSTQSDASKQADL
FP receptor, sequence (P43088 whole entry): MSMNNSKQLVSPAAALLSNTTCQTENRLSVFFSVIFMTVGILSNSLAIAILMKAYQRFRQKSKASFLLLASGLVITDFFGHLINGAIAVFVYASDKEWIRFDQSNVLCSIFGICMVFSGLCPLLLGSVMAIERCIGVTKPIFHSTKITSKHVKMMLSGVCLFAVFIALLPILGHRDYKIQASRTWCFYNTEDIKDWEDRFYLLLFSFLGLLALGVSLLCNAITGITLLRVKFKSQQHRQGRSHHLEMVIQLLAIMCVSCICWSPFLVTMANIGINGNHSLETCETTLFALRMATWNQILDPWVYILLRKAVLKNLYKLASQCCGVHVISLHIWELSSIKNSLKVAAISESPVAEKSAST
IP receptor, sequence (P43119 whole entry): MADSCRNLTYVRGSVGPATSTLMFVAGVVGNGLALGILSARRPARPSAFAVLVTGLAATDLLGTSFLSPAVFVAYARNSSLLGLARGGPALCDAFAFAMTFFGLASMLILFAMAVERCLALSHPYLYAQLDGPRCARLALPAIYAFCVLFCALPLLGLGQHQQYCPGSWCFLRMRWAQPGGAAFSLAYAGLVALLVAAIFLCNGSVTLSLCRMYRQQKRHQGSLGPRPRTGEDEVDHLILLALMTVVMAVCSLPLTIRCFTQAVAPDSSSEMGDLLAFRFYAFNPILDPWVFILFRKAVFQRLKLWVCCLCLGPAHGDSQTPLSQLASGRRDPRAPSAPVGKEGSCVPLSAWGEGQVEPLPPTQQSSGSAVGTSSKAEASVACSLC

For the compound `CCCCCCCCNC(=O)c1coc([C@@H]2CCCN2Cc2cc(OC)ccc2CCC(=O)NS(=O)(=O)C(F)(F)F)n1` [Example 12f, 2-{1-(5-methoxy-2-(3-oxo-3-{[(trifluoromethyl)sulfonyl]amino]propyl)benzyl]pyrrolidin-2-yl}-N-octyl-1,3-oxazole-4-carboxamide], in [1] (Table 1), the IC50 – broadly, the concentration that inhibits the measured activity by half – was 500 nM. The Kb (in general, the affinity of an antagonist, worked out from how it opposes an agonist) in test [2] (Table 1) was 380 nM; in test [3] (Table 1), less than 1 nM; in test [4] (Table 1), 60 nM; in [5] (Table 1), 1100 nM; in [6] (Table 1), 140 nM; in test [7] (Table 1) it was 20 nM. Besides, the antagonist equilibrium constant (Kb) in test [8] (Table 1) was 400 nM; in [9] (Table 1), less than 1 nM.

Turning to `COc1ccc(CCC(=O)NS(=O)(=O)N(C)C)c(CN2CCC[C@H]2c2nc(C(=O)NCCCCC3CCCCC3)co2)c1` [Example 12k], the IC50 in test [1] (Table 2) turned out to be 200 nM. Moreover, the Kb was found to be 1400 nM in [2] (Table 2); 80 nM in test [3] (Table 2); 3100 nM in test [4] (Table 2); 4000 nM in [5] (Table 2, NA = inactive); 5600 nM in test [6] (Table 2); 400 nM in [7] (Table 2). The Kb was 2900 nM in test [8] (Table 2, NA = inactive) and 13 nM in [9] (Table 2).

As to `CCS(=O)(=O)NC(=O)CCc1ccc(OC)cc1CN1CCC[C@H]1c1nc(C(=O)NCCCCC2CCCCC2)co1` [Example 12l, (S)—N-(4-cyclohexylbutyl)-2-(1-(5-methoxy-2-(3-oxo-3-(ethylsulfonamido)propyl)benzyl)pyrrolidin-2-yl)oxazole-4-carboxamide], the IC50 in test [1] (Table 2) worked out at 240 nM. Besides, the Kb in [2] (Table 2) came to 1600 nM; in test [3] (Table 2), 40 nM; in test [4] (Table 2) it was 180 nM; in [5] (Table 2, NA = inactive), 1800 nM; in [6] (Table 2) it was 910 nM; in test [7] (Table 2), 160 nM. Also, the antagonist equilibrium constant (Kb) in [8] (Table 2, NA = inactive) came to 6900 nM; in test [9] (Table 2), 11 nM.
